In article PMC7456811, “Regulation of Melanocortin-4 Receptor Pharmacology by Two Isoforms of Melanocortin Receptor Accessory Protein 2 in Topmouth Culter (Culter alburnus)” (Frontiers in Endocrinology, 2020):
Marks after values point to notes of the source that are not given here.

What was measured:
caMC4R [1] = assay: Intracellular cAMP signaling (radioimmunoassay); assay type: cell-based, topmouth culter (Culter alburnus); settings: for stimulation of intracellular cAMP, in words / EC50 / Rmax (cAMP): HEK293T cells; for EC50: cAMP RIA; for EC50 / Rmax (cAMP): mean ± SEM of at least three independent experiments; for Rmax (cAMP): hMC4R = 100
Procedure: The medium contained Dulbecco's Modified Eagle's medium (DMEM) (Invitrogen, Carlsbad, CA, USA), 10% newborn calf serum, 10 mM HEPES, 50 μg/mL of gentamicin, 0.25 μg/mL of amphotericin B, 100 μg/mL of streptomycin and 100 IU/mL of penicillin. Cells were plated into 24-well or 6-well plates (Corning, NY, USA) pre-coated with 0.1% gelatin.
Radioimmunoassay for intracellular cAMP was performed as described previously ([47], [48]).
Prism 8.3 software (GraphPad, San Diego, CA, USA) was used to calculate parameters including maximal binding (Bmax), IC50, maximal response (Rmax), basal activity, and EC50. […] Ligand binding, cAMP, flow cytometry parameters of caMC4R regulated by MRAP2s and ERK1/2 signaling were analyzed for significance of differences by one-way ANOVA.
HEK293T cells were transiently transfected with MC4R plasmids. […] Data are mean ± SEM from triplicate measurements within one experiment. All experiments were performed at least three times independently.

caMC4R [2] = assay: Competitive ligand binding (125I-NDP-MSH displacement); settings: displacement of 125I-NDP-MSH; for IC50: HEK293T cells, mean ± SEM of at least three independent experiments

Compound | EC50 and Rmax compared with hMC4R, in words (caMC4R [1]; caMC4R versus hMC4R, cAMP) | stimulation of intracellular cAMP, in words (caMC4R [1]; caMC4R) | EC50 (caMC4R [1]; caMC4R) [nM] | Rmax (cAMP) (caMC4R [1]; caMC4R) | allosteric agonism, in words (caMC4R [1]; caMC4R, concluded from binding and cAMP data) | binding affinity, in words (caMC4R [2]) | IC50 (caMC4R [2]) [nM]
O=C(N[C@H](Cc1ccc(Cl)cc1)C(=O)N1CCC(Cn2cncn2)(C2CCCCC2)CC1)[C@H]1Cc2ccccc2CN1 [THIQ, N-[(3R)-1,2,3,4-Tetrahydroisoquinolinium-3-ylcarbonyl]-(1R)-1-(4-chlorobenzyl)-2-[4-cyclohexyl-4-(1H-1,2,4-triazol-1-ylmethyl)piperidin-1-yl]-2-oxoethylamine] | EC50 was significantly increased and Rmax was significantly decreased | dose-dependently increased intracellular cAMP levels | 75.7 ± 10.6 | 39.73 ± 1.37^b % | not an allosteric agonist at caMC4R | able to displace the ^125I-NDP-MSH bound with caMC4R | –
CSCC[C@H](NC(=O)[C@H](CCCNC(=N)N)NC(=O)[C@H](Cc1ccc(O)cc1)NC(=O)[C@@H]1CCCN1C(=O)CNC(=O)[C@H](CCC(=O)O)NC(=O)[C@H](CC(=O)O)NC(=O)[C@H](CCCCN)NC(=O)[C@H](CCCCN)NC(=O)[C@H](CCC(=O)O)NC(=O)[C@H](C)N)C(=O)N[C@@H](CCC(=O)O)C(=O)N[C@@H](Cc1c[nH]cn1)C(=O)N[C@@H](Cc1ccccc1)C(=O)N[C@@H](CCCNC(=N)N)C(=O)N[C@@H](Cc1c[nH]c2ccccc12)C(=O)NCC(=O)N[C@@H](CO)C(=O)N1CCC[C@H]1C(=O)N1CCC[C@H]1C(=O)N[C@@H](CCCCN)C(=O)N[C@@H](CC(=O)O)C(=O)O [β-MSH, β-melanocyte-stimulating hormone] | – | dose-dependently increased intracellular cAMP levels | 5.76 ± 1.62 | 167.74 ± 27.91% | – | significantly higher affinity to β-MSH than hMC4R | 442 ± 65.4
[Nle^4, D-Phe^7]-α-MSH [NDP-MSH] | – | dose-dependently increased intracellular cAMP levels | 0.44 ± 0.24 | 84.48 ± 8.28% | – | – | 4.87 ± 1.8
